Results published in patent publication US20050159390A1, “Treatment and prevention of HIV and other viral infections” (priority 1998, published 2005).
Where two headings read alike, the source gives them in different places.

How the values were obtained:
HIV-1III B = test: HIV-1 P24 output in activated human PBMCs, test solution mixed with virus overnight, day 9; type: cell-based; details: for inhibition at 5000 µg/mL (stock): Human immunodeficiency virus 1, PBMC, 216 h, read-out: Inhibition % of the control (P24 output)
Procedure: Research Grade Purified d-Galactose (CAT# g404, lot 117H00431, FW 180.2, Sigma Chemical Co., St. Louis, Mo.) was dissolved in saline at a concentration of 5 mg/ml. The solution was allowed to stand at room temperature for 15 minutes and mixed by vortex until the galactose was completely dissolved. The galactose solution was divided into two equal aliquots. Stabilizing solution (0.1 ml) was added to one aliquot, then vortexed and incubated at room temperature for 30 minutes. After mixing again, the mixture was centrifuged at 1500 g for 30 minutes and the supernatant was filtered through a 0.2 μm filter and transferred to a sterile 15 ml tube. The solution was sterilized by gamma radiation (2.5 mega RADs) with 15 minutes exposure. The aliquot without the stabilizing solution was labeled “1A” and the aliquot containing the stabilized solution was labeled “1B”. […] […] Control solutions were water.
One ml of each of the dilutions of the test solution or control was mixed with an equal volume of HIV-1III B (˜50 TCID50/2×10^5 cells) to infect activated human PBMCs overnight at 37° C. (3×10^5 cells/dilution). HIV-1III B is a laboratory-adapted strain. The cells then were washed and placed in culture media containing the indicated dilution of the test solution in triplicate wells ([…], ½ medium changes with media containing the indicated dilutions of test solution were made at ˜3 day intervals). The conditioned media were tested for HIV-1 P24 output on day 9 using the DuPont P24 assay kit. The control was infected PBMCs in the absence of test solutions. Results are shown in Table 9 and are measured as the Inhibition % of the control.

HIV-1 IIIB = test: HIV-1 P24 output in activated human PBMCs, test solutions added post infection; type: cell-based; details: repeat with further dilutions; dilution 1:1000
Procedure: In addition, a similar experiment was performed, except that test solutions were added post infection, at the time of plating into the triplicate wells.

PBMCs = type: cell-based, human
Procedure: For the standard PBMC assay, PHA-P stimulated cells from at least two normal donors were pooled, diluted in fresh medium to a final concentration of 1×10^6 cells/mL, and plated in the interior wells of a 96 well round bottom microplate at 50 μL/well (5×10^4 cells/well). Test drug dilutions were prepared at a 2× concentration in microfuge tubes and 100 μL of each concentration was placed in appropriate wells in a standard format. A predetermined dilution of virus stock was placed in each test well (50 μL, final MOI≅0.1). Wells with cells and virus alone were used for virus control. Separate plates were prepared identically without virus for drug cytotoxicity studies using an XTT assay system. […]
(§1) Tetrazolium dye staining of screening plates: After 6 days of incubation (37° C. with 5% CO2), the test plates were analyzed by staining with the tetrazolium dye XTT (2,3-b (2-methoxy-4-nitro-5-sulfophenyl)-2H-tetrazolium-5-carboxanilide). XTT-tetrazolium is metabolized by mitochondrial enzymes of metabolically active cells to a soluble formazan product, allowing the rapid quantitative analysis of the inhibition of HIV-induced cell killing by anti-HIV compounds. […] Plates were sealed with adhesive plate sealers and inverted several times to mix the soluble formazan product and the plate was read spectrophotometrically at 450 nm with a Molecular Devices Vmax plate reader. […]

HIV-1RF = test: CEM-SS cell-based assay, inhibition of HIV-induced cell killing (XTT); details: CEM-SS cells
Procedure: (§2) Cell Preparation: Prior to infection, CEM-SS cells were grown in complete tissue culture medium (RPMI 1640 medium with 10% heat-inactivated fetal bovine serum, 2 mM L-glutamine, 100 U/mL penicillin, 100 μg/mL streptomycin, 10 μg/mL gentamycin) and transferred to T-150 flasks. On the day preceding the assay, the cells were split 1:2 to assure the cells would be in an exponential growth phase at time of infection. On the day of assay, the cells were washed twice with tissue culture medium and resuspended in fresh tissue culture medium. […]
Virus Preparation: Pre-tittered aliquots of HIV-1ROJO and HIV-1RF were removed from the freezer (−80° C.) and thawed to room temperature in a biological safety cabinet. The virus was resuspended and diluted into tissue culture medium such that the amount of virus added to each well in a volume of 50 μL will be the amount determined to give complete cell killing at 6 days post-infection.
Tetrazolium dye staining of screening plates: After 6 days of incubation (37° C. with 5% CO2), the test plates were analyzed by staining with the tetrazolium dye XTT (2,3-b (2-methoxy-4-nitro-5-sulfophenyl)-2H-tetrazolium-5-carboxanilide). XTT-tetrazolium is metabolized by mitochondrial enzymes of metabolically active cells to a soluble formazan product, allowing the rapid quantitative analysis of the inhibition of HIV-induced cell killing by anti-HIV compounds. […]

HIV-1IIIB = test: as above; details: CEM-SS cells
CEM-SS cells = type: cell-based
Procedure: as §2
as §1, with “reader. Indices such as % CPE Reduction (cytopathic effects), % Cell Viability, IC25, IC50, IC95, TC25, TC50, and TC95 and other indices were calculated.” for “reader.”

X4 strain LAI/IIIB = test: RT activity in infected PBMCs treated with carbohydrates; type: cell-based, HIV; details: summary of Table 17
Procedure: Reverse Transcriptase Activity Assay: A microtiter based reverse transcriptase (RT) reaction was utilized as described by Buckheit et al., (1991), AIDS Research and Human Retroviruses, 7: 295-302. Tritiated thymidine triphosphate (3H-TTP) was suspended in distilled H2O at 5 Ci/mL. Poly rA and oligo dT were prepared as a stock solution which was kept at −20° C. RT reaction buffer was prepared fresh on a daily basis and contained 125 μL 1M EGTA, 125 μL dH2O, 110 μL 10% SDS, 50 μL 1M Tris (pH 7.4), 50 μL 1M DTT, and 40 μL 1M MgCl2. These three solutions were mixed together in a ratio of 2 parts 3H-TTP, 1 part poly rA:oligo dT, and 1 part reaction buffer. Ten microliters of this reaction mixture were placed in a round bottom microtiter plate and 15 μL of virus containing supernatant were added and mixed. The plate was incubated at 37° C. in a water bath with a solid support to prevent submersion of the plate and incubated for 60 minutes. […] Opti-Fluor-O (Packard) was added to each sample and incorporated radioactivity was quantified utilizing a Wallac 1450 MicroBeta Plus liquid scintillation counter. […]
No carbohydrates were added to the control sample. RT activity was determined at 3, 6, 9, 13, 17, and 20 days post-infection (PI) with X4 strain LAI/IIIB.

[1] = dilution 1:20 of 5 mg/ml solution
[2] = dilution 1:40 of 5 mg/ml solution
[3] = dilution 1:80 of 5 mg/ml solution
[4] = dilution 1:160 of 5 mg/ml solution
[5] = dilution 1:10 of 5 mg/ml solution

O=C(CO)N[C@H]1[C@H]([C@H](O)[C@H](O)CO)OC(O)(C(=O)O)C[C@@H]1O (single isomer, unassigned) [2A, N-glycolylneuraminic acid]
inhibition at 5000 µg/mL (stock) (HIV-1III B; [1]): 78% | inhibition at 5000 µg/mL (stock) (HIV-1III B; [2]): 66% | inhibition at 5000 µg/mL (stock) (HIV-1III B; [3]): 41% | inhibition at 5000 µg/mL (stock) (HIV-1III B; [4]): 19% | Inhibition % of Control (P24 output) (HIV-1 IIIB): 7%

O=C(CO)N[C@H]1[C@H]([C@H](O)[C@H](O)CO)OC(O)(C(=O)O)C[C@@H]1O (single isomer, unassigned) [2B, N-glycolylneuraminic acid]
Inhibition % of the control (P24 output) (HIV-1III B; [2]): 61% | Inhibition % of Control (P24 output) (HIV-1 IIIB): 1%

OC[C@H]1O[C@H](O[C@H]2[C@@H](O)[C@@H](CO)OC(O)[C@@H]2O)[C@H](O)[C@@H](O)[C@H]1O (single isomer, unassigned) [3A, galactose-α 1,3-galactose]
Inhibition % of the control (P24 output) (HIV-1III B; [1]): 3.6% | Inhibition % of the control (P24 output) (HIV-1III B; [2]): 2.2% | Inhibition % of the control (P24 output) (HIV-1III B; [3]): 1.4% | Inhibition % of the control (P24 output) (HIV-1III B; [4]): 0.4%

OC[C@H]1O[C@H](O[C@H]2[C@@H](O)[C@@H](CO)OC(O)[C@@H]2O)[C@H](O)[C@@H](O)[C@H]1O (single isomer, unassigned) [3B, galactose-α 1,3-galactose]
Inhibition % of the control (P24 output) (HIV-1III B; [5]): 4.6% | Inhibition % of the control (P24 output) (HIV-1III B; [1]): 3.6% | Inhibition % of the control (P24 output) (HIV-1III B; [2]): 1.8% | Inhibition % of the control (P24 output) (HIV-1III B; [3]): 1.1% | Inhibition % of the control (P24 output) (HIV-1III B; [4]): 0.5%

O=C[C@H](O)[C@@H](O)[C@@H](O)[C@H](O)CO [1A, d-Galactose]
inhibition at 5000 µg/mL (stock) (HIV-1III B; [5]): 4% | inhibition at 5000 µg/mL (stock) (HIV-1III B; [1]): 5% | inhibition at 5000 µg/mL (stock) (HIV-1III B; [2]): 4% | inhibition at 5000 µg/mL (stock) (HIV-1III B; [3]): 2% | inhibition at 5000 µg/mL (stock) (HIV-1III B; [4]): 2%

O=C[C@H](O)[C@@H](O)[C@@H](O)[C@H](O)CO [1B, d-Galactose]
Inhibition % of the control (P24 output) (HIV-1III B; [5]): 7% | Inhibition % of the control (P24 output) (HIV-1III B; [1]): 5% | Inhibition % of the control (P24 output) (HIV-1III B; [2]): 3% | Inhibition % of the control (P24 output) (HIV-1III B; [3]): 4% | Inhibition % of the control (P24 output) (HIV-1III B; [4]): 2%

Cc1cn([C@H]2C[C@H](N=[N+]=[N-])[C@@H](CO)O2)c(=O)[nH]c1=O [AZT, reference compound]
CC50 (PBMCs): > 4 µM | IC50 (HIV-1RF): 5 to 7 nM | IC50 (HIV-1IIIB): 11 to 17 nM | CC50 (CEM-SS cells): > 1000 nM

CC(=O)N[C@H]1[C@H]([C@H](O)[C@H](O)CO)OC(O)(C(=O)O)C[C@@H]1O (stereo partly shown) [N-acetylneuraminic acid, reference compound]
RT activity in treated cells (in words) (X4 strain LAI/IIIB): decreased RT activity was observed only with high concentrations
